Experimental data reported in patent publication EP4778531A1, “MUSCLE RELAXANT ANTAGONIST FOR REVERSAL FOR BENZYLISOQUINOLINE MUSCLE RELAXANT” (priority 2023, dated 2025).

Legend:
[1] = system: cisatracurium-induced guinea pig muscle relaxation model; experiment: Arterial blood pressure and heart rate in the cisatracurium muscle relaxation model; type: in vivo, Hartley guinea pigs
Protocol: Ninety (90) qualified Hartley guinea pigs, male, were used. Sixty (60) animals were randomly divided into 6 experimental groups based on body weight using a stratified random method: negative control group, positive control group, low-dose test group, medium-dose test group, high-dose test group, and combination group, with 10 animals per group (n=10). The remaining animals served as spares. The negative control group received 0.9% sodium chloride. The positive control group received 0.0625 mg/kg neostigmine methylsulfate (referred to as neostigmine). The low-dose test group received 10 mg/kg adamgammadex sodium. The medium-dose test group received 20 mg/kg adamgammadex sodium. The high-dose test group received 40 mg/kg adamgammadex sodium. The combination group received 10 mg/kg adamgammadex sodium and 0.03125 mg/kg neostigmine. The administration volume for all groups was 1 mL/kg.
Adaptive feeding was conducted after the quarantine period. On the day of the experiment, guinea pigs were weighed, administered atropine (0.1 mg/kg) intramuscularly, and then anesthetized with an intraperitoneal injection of anesthetic (pentobarbital sodium 10 mg/kg, urethane 1000 mg/kg). After fixation, the animals were intubated and connected to a small animal ventilator. Both external jugular veins and the right carotid artery were cannulated. The left jugular vein was used for cisatracurium infusion, the right jugular vein for injection of different test substances, and the carotid artery was connected to a multi-channel physiological signal acquisition and processing system for continuous monitoring of arterial blood pressure and heart rate. Electrode patches were subcutaneously placed behind the left femur and tibia of the guinea pig, and two stimulating electrodes of the neuromuscular monitor were fixed to the two electrode patches. The left hind paw was fixed on a custom-made platform. A sensor was fixed to the skin surface over the gastrocnemius muscle of the left hind limb, and a skin temperature probe was fixed to a flat area of skin. Continuous single-twitch stimulation was applied at 1 Hz. After the twitch height stabilized, the mode was switched to train-of-four stimulation (TOF mode, stimulus current 5 mA, frequency 2 Hz, pulse width 0.2 ms, interval between trains 15 s) for at least 5 min. Calibration was then performed using Calibration Mode 2, followed by TOF mode stimulation. After obtaining a stable stimulation response for at least 2 min, cisatracurium solution was infused intravenously using a dual-channel micro-infusion pump, and the start time of infusion was recorded. […] At this point, cisatracurium infusion was stopped. After stopping the infusion, neuromuscular function was allowed to recover spontaneously. When neuromuscular function reached moderate recovery, the test drug formulation was administered intravenously. Neuromuscular function was allowed to recover completely, and the administration time was recorded (Figure 1). Using the time of spontaneous recovery to moderate neuromuscular function (TOF50) as zero point, the times for recovery from TOF50 to TOF75, TOF75 to TOF90, and TOF50 to TOF90 were calculated for each animal (Table 1-2). Arterial blood pressure (systolic, diastolic, mean arterial pressure) and heart rate were recorded before cisatracurium infusion, at the time cisatracurium infusion was stopped, at the time of moderate neuromuscular recovery, and at the time of complete neuromuscular function recovery (Tables 3-7). Data were expressed as Mean ± SD. Statistical T-tests were performed using SPSS software to evaluate differences in blood pressure, heart rate, and residual neuromuscular blockade recovery times. P < 0.05 was considered statistically significant.

[2] = system: Wild-type AB strain zebrafish; experiment: Evaluation of compound-induced sensitization risk in zebrafish (tryptase OD, BAPNA); type: in vivo; details: 500 ng/tail
Protocol: Wild-type AB strain zebrafish at 2 days post-fertilization (2 dpf) were randomly selected and placed in 24-well plates. Each group was with 6 replicate wells per group and 10 zebrafish per well. The following groups were set up: (1) Normal control group; (2) Positive control group (the used drug was mast cell sensitizer C48/80 at 1.5 µg/mL concentration); (3) Compound 1 (adamgammadex sodium) experimental group; (4) Compound 2 experimental group; (5) Compound 3 experimental group; (6) Compound 4 experimental group; (7) Compound 5 experimental group; (8) Compound 6 experimental group; (9) Compound 7 (sugammadex sodium) experimental group. In the experimental groups, Compound 1 was adamgammadex sodium, Compounds 2-6 were adamgammadex sodium analogues, and Compound 7 was sugammadex sodium. The volume of each well was 1 mL, and all experimental groups were treated with BAPNA (a specific detection reagent for mast cell degranulation) dissolved in water. Table 1: Structural Formulas of Compounds 1-7
After 1 day of treatment at 28°C, the liquid was transferred to a 96-well plate, with 200 µL/well. The relative absorbance (OD value) of tryptase expression levels in each experimental group was measured using a microplate reader. The OD value statistical analysis results were used to evaluate the sensitization risk of the samples. Statistical analysis was performed using SPSS software, with p < 0.05 indicating a significant difference. Sensitization risk (%) = (OD(Samplegroup)−OD(NormalControlgroup))/(OD (NormalControlgroup)) × 100% [formula]

[3] = positive control group, 0.0625 mg/kg i.v.
[4] = high-dose test group, 40 mg/kg i.v.
[5] = low-dose test group, 10 mg/kg i.v.
[6] = medium-dose test group, 20 mg/kg i.v.

CN(C)C(=O)Oc1cccc([N+](C)(C)C)c1 [Neostigmine, neostigmine methylsulfate]
effect on heart rate (in words) ([1]; 0.0625 mg/kg): significant side effect of lowering heart rate | heart rate decrease ([1]; 0.0625 mg/kg neostigmine, positive control group, summary statement): approximately 30% | Heart rate Administration [1, 3]: 238+42 bmp | Heart rate Complete Recovery [1, 3]: 157±49 bmp | Heart rate Moderate Recovery [1, 3]: 181±54 bmp | Heart rate Muscle Relaxation End [1, 3]: 239+11 bmp | Heart rate Muscle Relaxation Start [1, 3]: 240+14 bmp | Mean Arterial Pressure mAP Administration [1, 3]: 68+12 mmHg | Mean Arterial Pressure mAP Complete Recovery [1, 3]: 67+15 mmHg | Mean Arterial Pressure mAP Moderate Recovery [1, 3]: 69+12 mmHg | Mean Arterial Pressure mAP Muscle Relaxation End [1, 3]: 63+8 mmHg | Mean Arterial Pressure mAP Muscle Relaxation Start [1, 3]: 62+11 mmHg | Mean Diastolic Pressure mDP Administration [1, 3]: 60+10 mmHg | Mean Diastolic Pressure mDP Complete Recovery [1, 3]: 58+15 mmHg | Mean Diastolic Pressure mDP Moderate Recovery [1, 3]: 61+12 mmHg | Mean Diastolic Pressure mDP Muscle Relaxation End [1, 3]: 57+6 mmHg | Mean Diastolic Pressure mDP Muscle Relaxation Start [1, 3]: 56±9 mmHg | Mean Pulse Pressure Administration [1, 3]: 17±8 mmHg | Mean Pulse Pressure Complete Recovery [1, 3]: 19+6 mmHg | Mean Pulse Pressure Moderate Recovery [1, 3]: 19±8 mmHg | Mean Pulse Pressure Muscle Relaxation End [1, 3]: 14±5 mmHg | Mean Pulse Pressure Muscle Relaxation Start [1, 3]: 15+4 mmHg | Mean Systolic Pressure mSP Administration [1, 3]: 76±15 mmHg | Mean Systolic Pressure mSP Complete Recovery [1, 3]: 78±13 mmHg | Mean Systolic Pressure mSP Moderate Recovery [1, 3]: 79±13 mmHg | Mean Systolic Pressure mSP Muscle Relaxation End [1, 3]: 71±10 mmHg | Mean Systolic Pressure mSP Muscle Relaxation Start [1, 3]: 71±12 mmHg | Degree of heart rate decrease at complete muscle relaxation recovery ([1]; positive control group, 0.0625 mg/kg i.v., vs heart rate at start of muscle relaxation): 35%

Adamgammadex sodium [Compound 1]
OD value (mean ± SE) ([2]; 1 day at 28°C, relative absorbance of tryptase expression levels): 0.060 ± 0.001 | Sensitization risk (%) ([2]; 1 day at 28°C, vs normal control OD): 11% | sensitization risk (in words) ([2]; conclusion from OD value): almost no sensitization risk | effect on animal blood pressure or heart rate (in words) ([1]; 10, 20, and 40 mg/kg): no effect on animal blood pressure or heart rate | Heart rate Administration [1, 4]: 258+18 bmp | Heart rate Complete Recovery [1, 4]: 258+16 bmp | Heart rate Moderate Recovery [1, 4]: 257+18 bmp | Heart rate Muscle Relaxation End [1, 4]: 249±21 bmp | Heart rate Muscle Relaxation Start [1, 4]: 243+27 bmp | Mean Arterial Pressure mAP Administration [1, 4]: 70±8 mmHg | Mean Arterial Pressure mAP Complete Recovery [1, 4]: 73+10 mmHg | Mean Arterial Pressure mAP Moderate Recovery [1, 4]: 72+8 mmHg | Mean Arterial Pressure mAP Muscle Relaxation End [1, 4]: 65+10 mmHg | Mean Arterial Pressure mAP Muscle Relaxation Start [1, 4]: 64+12 mmHg | Mean Diastolic Pressure mDP Administration [1, 4]: 60+7 mmHg | Mean Diastolic Pressure mDP Complete Recovery [1, 4]: 63±9 mmHg | Mean Diastolic Pressure mDP Moderate Recovery [1, 4]: 62±8 mmHg | Mean Diastolic Pressure mDP Muscle Relaxation End [1, 4]: 56+9 mmHg | Mean Diastolic Pressure mDP Muscle Relaxation Start [1, 4]: 56+12 mmHg | Mean Pulse Pressure Administration [1, 4]: 21±5 mmHg | Mean Pulse Pressure Complete Recovery [1, 4]: 21+5 mmHg | Mean Pulse Pressure Moderate Recovery [1, 4]: 21+4 mmHg | Mean Pulse Pressure Muscle Relaxation End [1, 4]: 19±5 mmHg | Mean Pulse Pressure Muscle Relaxation Start [1, 4]: 18+4 mmHg | Mean Systolic Pressure mSP Administration [1, 4]: 81±10 mmHg | Mean Systolic Pressure mSP Complete Recovery [1, 4]: 84±11 mmHg | Mean Systolic Pressure mSP Moderate Recovery [1, 4]: 83±9 mmHg | Mean Systolic Pressure mSP Muscle Relaxation End [1, 4]: 75±11 mmHg | Mean Systolic Pressure mSP Muscle Relaxation Start [1, 4]: 74±12 mmHg | Heart rate Administration [1, 5]: 269+20 bmp | Heart rate Complete Recovery [1, 5]: 270+18 bmp | Heart rate Moderate Recovery [1, 5]: 268+20 bmp | Heart rate Muscle Relaxation End [1, 5]: 261+20 bmp | Heart rate Muscle Relaxation Start [1, 5]: 259+30 bmp | Mean Arterial Pressure mAP Administration [1, 5]: 75+15 mmHg | Mean Arterial Pressure mAP Complete Recovery [1, 5]: 76+13 mmHg | Mean Arterial Pressure mAP Moderate Recovery [1, 5]: 74+10 mmHg | Mean Arterial Pressure mAP Muscle Relaxation End [1, 5]: 70+11 mmHg | Mean Arterial Pressure mAP Muscle Relaxation Start [1, 5]: 70±16 mmHg | Mean Diastolic Pressure mDP Administration [1, 5]: 67+13 mmHg | Mean Diastolic Pressure mDP Complete Recovery [1, 5]: 68+11 mmHg | Mean Diastolic Pressure mDP Moderate Recovery [1, 5]: 65+8 mmHg | Mean Diastolic Pressure mDP Muscle Relaxation End [1, 5]: 62+9 mmHg | Mean Diastolic Pressure mDP Muscle Relaxation Start [1, 5]: 61+14 mmHg | Mean Pulse Pressure Administration [1, 5]: 19+6 mmHg | Mean Pulse Pressure Complete Recovery [1, 5]: 18+6 mmHg | Mean Pulse Pressure Moderate Recovery [1, 5]: 18±5 mmHg | Mean Pulse Pressure Muscle Relaxation End [1, 5]: 17+4 mmHg | Mean Pulse Pressure Muscle Relaxation Start [1, 5]: 18±5 mmHg | Mean Systolic Pressure mSP Administration [1, 5]: 85±18 mmHg | Mean Systolic Pressure mSP Complete Recovery [1, 5]: 86±16 mmHg | Mean Systolic Pressure mSP Moderate Recovery [1, 5]: 83±12 mmHg | Mean Systolic Pressure mSP Muscle Relaxation End [1, 5]: 79±12 mmHg | Mean Systolic Pressure mSP Muscle Relaxation Start [1, 5]: 79±18 mmHg | Heart rate Administration [1, 6]: 259+38 bmp | Heart rate Complete Recovery [1, 6]: 263+36 bmp | Heart rate Moderate Recovery [1, 6]: 261+35 bmp | Heart rate Muscle Relaxation End [1, 6]: 247+42 bmp | Heart rate Muscle Relaxation Start [1, 6]: 242+43 bmp | Mean Arterial Pressure mAP Administration [1, 6]: 70+8 mmHg | Mean Arterial Pressure mAP Complete Recovery [1, 6]: 73+6 mmHg | Mean Arterial Pressure mAP Moderate Recovery [1, 6]: 74+7 mmHg | Mean Arterial Pressure mAP Muscle Relaxation End [1, 6]: 65+10 mmHg | Mean Arterial Pressure mAP Muscle Relaxation Start [1, 6]: 64±8 mmHg | Mean Diastolic Pressure mDP Administration [1, 6]: 61+8 mmHg | Mean Diastolic Pressure mDP Complete Recovery [1, 6]: 64+6 mmHg | Mean Diastolic Pressure mDP Moderate Recovery [1, 6]: 64+6 mmHg | Mean Diastolic Pressure mDP Muscle Relaxation End [1, 6]: 57+9 mmHg | Mean Diastolic Pressure mDP Muscle Relaxation Start [1, 6]: 56+8 mmHg | Mean Pulse Pressure Administration [1, 6]: 19±3 mmHg | Mean Pulse Pressure Complete Recovery [1, 6]: 20+4 mmHg | Mean Pulse Pressure Moderate Recovery [1, 6]: 20+3 mmHg | Mean Pulse Pressure Muscle Relaxation End [1, 6]: 18±3 mmHg | Mean Pulse Pressure Muscle Relaxation Start [1, 6]: 18±3 mmHg | Mean Systolic Pressure mSP Administration [1, 6]: 80±8 mmHg | Mean Systolic Pressure mSP Complete Recovery [1, 6]: 84±7 mmHg | Mean Systolic Pressure mSP Moderate Recovery [1, 6]: 84±7 mmHg | Mean Systolic Pressure mSP Muscle Relaxation End [1, 6]: 75±10 mmHg | Mean Systolic Pressure mSP Muscle Relaxation Start [1, 6]: 74±9 mmHg
